Activity calls are given as the source filed them. Cut-off read from the data, not from the text of the source: actives have a measured IC50 and inactives only a lower limit.

For the assay, the target named is Envelope glycoprotein gp160 (Human immunodeficiency virus 1, UniProt Q6QLK5). The experiment in a line: cell-free HIV fusion peptide-binding blockers – biochemical, uHTS, fluorescence dequenching, […] (AID 1986).
Envelope glycoprotein gp160, sequence (Q6QLK5 whole entry, the tested form may be a part): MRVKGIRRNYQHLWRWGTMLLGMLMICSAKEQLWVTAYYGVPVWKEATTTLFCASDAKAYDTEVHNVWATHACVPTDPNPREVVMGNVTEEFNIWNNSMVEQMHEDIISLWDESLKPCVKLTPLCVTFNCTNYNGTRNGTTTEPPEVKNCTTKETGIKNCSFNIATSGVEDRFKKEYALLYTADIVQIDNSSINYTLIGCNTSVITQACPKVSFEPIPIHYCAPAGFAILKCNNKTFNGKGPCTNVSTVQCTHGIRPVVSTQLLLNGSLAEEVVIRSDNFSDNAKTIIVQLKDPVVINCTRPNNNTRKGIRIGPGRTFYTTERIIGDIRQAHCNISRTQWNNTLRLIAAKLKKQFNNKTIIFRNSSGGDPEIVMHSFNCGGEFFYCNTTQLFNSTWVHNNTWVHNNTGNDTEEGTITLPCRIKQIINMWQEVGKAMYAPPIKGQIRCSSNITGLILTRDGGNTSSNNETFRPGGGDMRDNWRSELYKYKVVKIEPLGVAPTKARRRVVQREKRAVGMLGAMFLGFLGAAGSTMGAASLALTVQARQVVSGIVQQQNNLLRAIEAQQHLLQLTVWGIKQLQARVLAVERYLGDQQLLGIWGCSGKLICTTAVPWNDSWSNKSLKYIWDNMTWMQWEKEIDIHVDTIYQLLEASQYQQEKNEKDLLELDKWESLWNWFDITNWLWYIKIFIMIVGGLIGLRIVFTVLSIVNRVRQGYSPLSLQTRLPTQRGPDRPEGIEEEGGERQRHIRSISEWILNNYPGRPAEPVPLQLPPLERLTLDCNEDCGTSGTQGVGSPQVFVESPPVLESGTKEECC
Regarding `O=C(O)C1Nc2c(O)cccc2C2C=CCC12` (stereo not drawn), the 50% inhibitory concentration (IC50) (in general, the point on the concentration scale where inhibition reaches its midpoint) is 9.86 µM (active). The result for `O=C(CN1C(=O)S/C(=C\C=C\c2ccccc2)C1=O)Nc1ccccc1C(=O)O` reads 21.1 µM (active). The result for `O=C(NCc1ccccc1)c1ccc2c(=O)[nH]c3c(C(=O)NCC4CCCO4)sc(=S)n3c2c1` (stereo not drawn) reads 24.5 µM (active).

Source of the values: ChEMBL document CHEMBL1201862, “PubChem BioAssay data set” (2004).
